Columns and labels:
[1] = system: human cytomegalovirus (HCMV); experiment: HCMV-EYFP replication in human embryonic lung fibroblasts (HEL), fluorescence-based antiviral assay; type: cell-based; details: HCMV-EYFP-infected HEL cells, 48 h incubation; read-out: 50% inhibitory concentration (IC50), EYFP emission reduced by half
Procedure: Furthermore, the sensitivity of HCMV replication to B-OT in human mammalian cells was investigated. For this purpose, experiments were performed as described in the work of Dal Pozzo et al. 2008 with B-OT: Human embryonic lung fibroblasts (HEL) were infected with recombinant HCMV EYFP viruses additionally encoding enhanced yellow fluorescent protein (EYFP) (Dal Pozzo F, et al., 2008). As a measure of viral replication after infection with HCMV-EYFP, the emission of the EYFP protein was measured (excitation wavelength: 485 nm/emission: 530 nm). The constant and low cell-associated background emission measured in an automated manner was subtracted from the fluorescence emission value. To test the antiviral effect of B-OT, HCMV-EYFP-infected cells were incubated for 48 h with different B-OT concentrations (0 to 20 mM B-OT). Dose-dependent inhibition of fluorescence (as a measure of viral replication) was evident. The required compound concentration that reduced EYFP emission by half compared with untreated controls (0 mM B-OT) was defined as the 50% inhibitory concentration (IC50) in the fluorescence-based antiviral assay. The IC50 determined here was 0.5 mM B-OT.

SARS-CoV-2 [2] = experiment: Individual curative trials in hospitalized COVID-19 patients: viral load by PCR; type: in vivo, human; details: daily less than 20 mg B-OT per 70 kg body weight over 7 days
C-reactive protein (CRP) = experiment: Individual curative trials in hospitalized COVID-19 patients: C-reactive protein level; type: in vivo, human; set-up: unit not given here
interleukin-6 (IL-6) = experiment: Individual curative trials in hospitalized COVID-19 patients: interleukin-6 level; type: in vivo, human
SARS-CoV-2 [3] = type: cell-based; details: 25 μM resveratrol for 48 h, Caco-2 cells
TKTL1 mRNA = type: cell-based, human; details: different resveratrol concentrations, 24 h
[4] = system: SARS-CoV-2 infected Caco-2 cells; details: human
TKTL1 promoter = system: TKTL1 promoter; set-up: dose or concentration left out as unconfirmed; details: HeLa cells, resveratrol for 48 h; cited from earlier work
HeLa cells = details: cited from earlier work
[5] = In vivo pharmacokinetics: blood-brain barrier penetration; details: in vivo pharmacokinetics data
Text: A preferred inhibitory thiamine analog is the substance benfo-oxythiamine (B-OT). B-OT is a precursor (“pro-pharmacon”, “prodrug”) of oxythiamine, can be applied orally and releases oxythiamine shortly after its uptake into the mammalian organism. Via the bloodstream, B-OT can reach all cells in all parts of the body.

[6] = daily less than 20 mg B-OT per 70 kg, after 7 days
[7] = hospitalized COVID-19 patients, start of therapy

Question: With `C/C(=C(\CCOP(=O)(O)O)SC(=O)c1ccccc1)N(C=O)Cc1cnc(C)[nH]c1=O` [B-OT, benfo-oxythiamine] as the compound, how does the IC50 [1] read?
Answer: 500 µM

Question: What about the “viral load as detected by PCR” value (SARS-CoV-2 [2]) of the same compound?
Answer: significant reduction in viral load

Question: What about the “average CRP level under 7-day B-OT therapy” value (C-reactive protein (CRP); [6]) of the same compound?
Answer: 5

Question: What about the “average CRP level before B-OT therapy” value (C-reactive protein (CRP); [7]) of the same compound?
Answer: 77

Question: And the “average IL-6 level under 7-day B-OT therapy” value (interleukin-6 (IL-6); [6])?
Answer: 5 pg/mL

Question: What about the “average IL-6 level before B-OT therapy” value (interleukin-6 (IL-6); [7]) of the same compound?
Answer: 63 pg/mL

Question: What does the source list for `Oc1ccc(C=Cc2cc(O)cc(O)c2)cc1` [resveratrol]?
Answer: decrease of replication ability of SARS-CoV-2 viruses compared to the control (SARS-CoV-2 [3]): 68%; reduction of TKTL1 mRNA (TKTL1 mRNA): the higher the concentration the stronger the reduction; viability of Caco-2 cells [4]: 93%; reduction in TKTL1 promoter activity compared to untreated cells (TKTL1 promoter): 75%; viability of HeLa cells (HeLa cells): significant decrease in the viability of HeLa cells

Question: With `Cc1ncc(C[n+]2csc(CCO)c2C)c(=O)[nH]1` [oxythiamine] as the compound, how does the blood-brain barrier penetration [5] read?
Answer: can penetrate the blood-brain barrier

Source: patent publication US20240374623A1, “TKTL1 INHIBITORS FOR ANTIVIRAL THERAPY” (Tavargenix GmbH, priority 2021, published 2024)
